Reference: patent publication US20110044892A1, “FORMULATION AND METHOD FOR TREATMENT OF TEETH” (priority 2007, published 2011)

How the values were obtained:
[1] = Dentinal tubule plugging by lanthanide salt solutions on etched dentine discs (SEM, backscattered SEM, EDX); parameters: species or system human; details: for penetration of / deposits within the tubules (qualitative): in water; for penetration of / deposits within the tubules (qualitative) / depth of penetration within the tubules: SEM; for blockage or plugging of the tubules (SEM appearance) / deposits on / coverage of the dentinal surface: solution in water; for blockage or plugging of the tubules (SEM appearance) / deposits on / coverage of the dentinal surface / depth of penetration within the tubules: 5 to 10 minutes on disc; for presence of the lanthanide by EDX: energy dispersive X-ray microanalysis of treated dentine; for depth of penetration within the tubules: 4% to 5% by weight solution in water
Excerpt: We also assessed other lanthanide compounds, as hereinafter discussed.
For each of the lanthanide salts, caries-free surgically-extracted human molar teeth were cleaned of organic material and, after removal of the crown, sectioned mesio-distally to provide one to two 1-mm dentine discs which were used in the experiment immediately. […] A solution containing a respective one of the above-mentioned lanthanide salts in a concentration of 4% to 5% by weight in the solvent was placed on or in contact with the discs respectively for 5 to 10 minutes before rinsing under flowing tap water. These treated discs were dried completely and then split using pliers, this helping to expose the tubular area for observation of depth of penetration. Specimens were then carbon-coated before examination under SEM (scanning electron microscope). The same procedure was used for each of the other lanthanide compounds hereinafter discussed.
When observed in a backscattered electron beam, dense materials appear as high contrast (bright areas) material relative to the background material (tooth structure). Lanthanides in general have greater density compared to the hydroxyapatite present in the tooth. Thus, in a backscattered electron beam, the lanthanides appear as bright areas due to their high density compared to the background.

[2] = Excerpt: For the purposes of this specification and the claims, the term “soluble” refers to a characteristic of a salt of dissolving in water (or other solvent in which the salt is placed) to the extent that there is substantially no precipitation or settling out of material.
[3] = pH of solution or formulation; assay type: physicochemical; details: solution as applied to dentin
Excerpt: If the solution applied to the dentin is too acidic, for example, lower than 5.5, it will demineralize and thereby undesirably weaken the dentin. If the solution applied to the dentin is too basic, for example, in excess of 7.5, it will undesirably form a lot of calculus. An ideal pH for the dentin treatment solution is considered to be about 6 to 7, preferably about 6.6 to 7. Such a pH is believed to be important not only to prevent de-mineralization but also to aid in re-mineralization of dentin surfaces. Therefore, in accordance with the present invention, the dentin treatment solution is formulated to have a pH of about 6 to 7, preferably about 6.6 to 7. […] The formulation with the addition of the insoluble oxide forms on the surface of the dentin or other tooth surface a protective coat that keeps the pH constant to maintain the tooth integrity and protect its surface from, for example, routinely used acidic beverages, protection of dental restorations, and microleakage protection (protection from bacterial leakage and leakage associated with restorative materials) as well as for re-mineralization. The insoluble oxide may include other insoluble substances providing a pH of about 6 to 7 in the dentin treatment solution and on the dentin surfaces, for example, amphoteric oxides such as aluminum oxide and zinc oxide. […]

Structure (SMILES)	penetration of / deposits within the tubules (qualitative) [1]	blockage or plugging of the tubules (SEM appearance) [1]	deposits on / coverage of the dentinal surface [1]	solubility in water [2]	presence of the lanthanide by EDX [1]	depth of penetration within the tubules [1]	pH of solution [3]
O=C([O-])[O-].O=C([O-])[O-].O=C([O-])[O-].[La+3].[La+3] [lanthanum carbonate]	poor penetration of the tubules	no plugging observed	no dentin surface deposits were observed	–	–	–	–
[La+3].[OH-].[OH-].[OH-] [lanthanum hydroxide]	poor penetration of the tubules	no plugging observed	no dentin surface deposits were observed	not being soluble in water	–	–	–
O.O.O.O.O.O.[Cl][Sm]([Cl])[Cl] [samarium chloride, samarium chloride hexahydrate]	–	substantially complete blockage or plugging of the tubules	cover substantially the dentinal surface	–	confirmed	–	–
O.O.O.O.O.O.[Cl-].[Cl-].[Cl-].[Gd+3] [gadolinium chloride, gadolinium chloride hexahydrate]	–	substantially complete blockage or plugging of the tubules	cover substantially the dentinal surface	–	confirmed	–	–
O=C([O-])C(=O)[O-].[K+].[K+] [potassium oxalate, reference compound]	–	formed crystals that appear to block the tubules	a substantial amount of potassium oxalate was deposited on the dentin surface	–	–	3 to 4 microns	about 2
O=[N+]([O-])[O-].[K+] [potassium nitrate, reference compound]	little or no deposits within the tubules	–	considerable deposits on the surface	–	–	–	–
O.O.O.O.O.O.O=[N+]([O-])[O-].O=[N+]([O-])[O-].O=[N+]([O-])[O-].[Gd+3] [gadolinium nitrate, gadolinium nitrate hexahydrate]	–	substantially complete blockage or plugging of the tubules	substantially covering the dentinal surface	–	confirmed	up to 5 microns	about 4.3
O.O.O.O.O.O.O.[Ce+3].[Cl-].[Cl-].[Cl-] [cerium chloride, cerium chloride heptahydrate]	–	substantially complete blockage or plugging of the tubules	cover substantially the dentinal surface	–	confirmed	–	–
O.O.O.O.O.O.O.[Cl-].[Cl-].[Cl-].[La+3] [lanthanum chloride, lanthanum chloride heptahydrate]	–	substantially complete blockage or plugging of the tubules	cover some of the surface	–	confirmed	up to 12 microns	–
